Activity calls are given as the source filed them. Unless noted, the calls are words filed in the database; no cut-off is given here.
Key:
[1] = target: DNA dC->dU-editing enzyme APOBEC-3A (Homo sapiens, UniProt P31941); test: A3A deaminase inhibition for selectivity – biochemical, dose response (AID 504722); type: functional
[2] = target: DNA dC->dU-editing enzyme APOBEC-3G (Homo sapiens, UniProt Q9HC16); test: Dose Response confirmation of small molecule APOBEC3G DNA Deaminase Inhibitors via a fluorescence-based single-stranded DNA deaminase assay. [Related pubchem assays (depositor defined):AID493012, AID493028]; type: functional
DNA dC->dU-editing enzyme APOBEC-3G, sequence (Q9HC16 whole entry, the tested form may be a part): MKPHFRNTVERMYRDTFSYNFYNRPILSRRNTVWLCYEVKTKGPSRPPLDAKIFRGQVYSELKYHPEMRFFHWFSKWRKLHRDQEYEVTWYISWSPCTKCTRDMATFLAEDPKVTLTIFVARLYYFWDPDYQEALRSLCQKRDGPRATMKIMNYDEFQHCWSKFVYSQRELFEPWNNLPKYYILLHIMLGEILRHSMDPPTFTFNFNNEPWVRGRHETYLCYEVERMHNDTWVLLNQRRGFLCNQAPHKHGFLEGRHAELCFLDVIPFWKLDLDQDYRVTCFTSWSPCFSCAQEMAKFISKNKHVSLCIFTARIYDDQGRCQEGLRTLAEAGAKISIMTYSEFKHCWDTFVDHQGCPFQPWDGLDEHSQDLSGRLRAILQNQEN

[3] = target: Apelin receptor (Homo sapiens, UniProt P35414); test: apelin receptor antagonists, arrestin read-out – cell-based, luminescent, enzyme-fragment complementation, selectivity assay for CCR6 antagonist project, SAR follow-up (AID 588359); type: functional
Apelin receptor, sequence (P35414 whole entry, the tested form may be a part): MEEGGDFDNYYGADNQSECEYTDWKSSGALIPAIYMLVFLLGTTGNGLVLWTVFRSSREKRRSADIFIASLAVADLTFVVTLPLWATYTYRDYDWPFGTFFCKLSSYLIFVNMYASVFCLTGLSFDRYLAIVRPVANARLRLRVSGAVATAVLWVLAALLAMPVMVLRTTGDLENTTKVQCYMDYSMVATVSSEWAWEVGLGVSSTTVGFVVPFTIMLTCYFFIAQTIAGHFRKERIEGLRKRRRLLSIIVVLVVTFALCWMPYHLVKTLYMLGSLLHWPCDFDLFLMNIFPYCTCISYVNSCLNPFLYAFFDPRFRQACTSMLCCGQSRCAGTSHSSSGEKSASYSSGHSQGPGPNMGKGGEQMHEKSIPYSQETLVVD

[4] = target: C-X-C chemokine receptor type 5 (Homo sapiens, UniProt P32302); test: inhibition of CXCL13-driven CXCR5 beta-arrestin recruitment – cell-based, luminescence, CHO-K1 PathHunter, selectivity assay for CCR6 antagonist project, SAR follow-up (AID 540340); type: functional
C-X-C chemokine receptor type 5, sequence (P32302 whole entry): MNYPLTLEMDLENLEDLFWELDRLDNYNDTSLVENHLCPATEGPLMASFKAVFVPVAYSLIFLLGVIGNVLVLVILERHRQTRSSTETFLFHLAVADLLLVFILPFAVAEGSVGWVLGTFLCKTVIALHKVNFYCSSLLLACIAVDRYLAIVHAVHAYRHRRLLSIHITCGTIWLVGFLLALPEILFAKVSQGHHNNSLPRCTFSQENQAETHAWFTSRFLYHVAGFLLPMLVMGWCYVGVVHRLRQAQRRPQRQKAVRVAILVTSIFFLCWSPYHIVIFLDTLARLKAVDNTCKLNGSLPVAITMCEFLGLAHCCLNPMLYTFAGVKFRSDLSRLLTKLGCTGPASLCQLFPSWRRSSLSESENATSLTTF

[5] = target: C-C chemokine receptor type 6 (Homo sapiens, UniProt P51684); test: analog antagonism of CCR6 beta-arrestin signaling – cell-based, luminescent beta-arrestin readout, SAR follow-up (AID 540334); type: functional
C-C chemokine receptor type 6, sequence (P51684 whole entry): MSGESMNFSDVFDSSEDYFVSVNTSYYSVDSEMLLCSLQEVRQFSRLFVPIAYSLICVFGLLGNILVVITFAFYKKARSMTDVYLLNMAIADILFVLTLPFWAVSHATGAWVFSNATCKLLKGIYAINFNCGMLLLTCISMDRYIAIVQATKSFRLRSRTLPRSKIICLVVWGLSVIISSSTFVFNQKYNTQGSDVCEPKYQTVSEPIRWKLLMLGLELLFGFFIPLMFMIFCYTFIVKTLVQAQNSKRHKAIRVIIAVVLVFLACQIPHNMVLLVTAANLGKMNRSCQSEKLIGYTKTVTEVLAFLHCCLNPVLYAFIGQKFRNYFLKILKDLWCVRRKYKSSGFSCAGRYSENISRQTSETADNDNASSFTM

[6] = system: Candida albicans; test: fluconazole-resistant Candida strain growth inhibitors – CaCi-8 strain, dry powder, set 4, dose response (AID 488950); type: functional, organism-based
[7] = system: Candida albicans; test: C. albicans growth inhibition with fluconazole – CaCi-2 strain, Alamar Blue, dry powder, set 4, dose response (AID 488943); type: functional, organism-based
[8] = system: NIH3T3; test: NIH-3T3 viability with fluconazole co-treatment – cell-based, Alamar Blue, dry powder, set 2, cytotoxicity control for antifungal resistance reversal project, dose response (AID 488911); type: functional; conditions: Mus musculus
[9] = system: Candida albicans; test: resistant Candida growth with fluconazole co-treatment – CaCi-8 strain, Alamar Blue, dry powder, set 2, dose response (AID 488909); type: functional, organism-based
[10] = system: Candida albicans; test: single-agent toxicity toward C. albicans – CaCi-2 strain, no fluconazole, dry powder, set 4, counter-screen for reversing antifungal drug resistance, dose response (AID 488932); type: functional, organism-based

DNA dC->dU-editing enzyme APOBEC-3A, sequence (P31941 whole entry): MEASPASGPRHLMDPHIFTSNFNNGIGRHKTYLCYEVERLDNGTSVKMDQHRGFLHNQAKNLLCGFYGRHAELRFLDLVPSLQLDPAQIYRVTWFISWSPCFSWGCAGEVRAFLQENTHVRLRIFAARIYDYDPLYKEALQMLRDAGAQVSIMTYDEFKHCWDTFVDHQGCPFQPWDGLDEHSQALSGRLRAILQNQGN

| IC50 [1] | IC50 [2] | IC50 [3] | IC50 [4] | IC50 [5] | SMILES | AC50 [6] | AC50 [7] | AC50 [8] | AC50 [9] | AC50 [10] |
| --- | --- | --- | --- | --- | --- | --- | --- | --- | --- | --- |
| > 100 µM (inactive) | 11.4 µM (active) | > 66.6 µM (inactive) | 52.7 µM (inactive) | > 66.6 µM (inactive) | O=C1C2C3C=CC(CO)(O3)C2C(=O)N1c1ccccc1-c1ccccc1 (stereo not given) | – | – | – | – | – |
| – | – | – | – | – | O=C(c1ccc(Cl)cc1)N1CCN(c2cccnc2)CC1 | 20.4 µM (active) | 25 µM (active) | 190 µM (active) | 30.5 µM (active) | 43.5 µM (active) |
